From PMC9448861 (Frontiers in Pharmacology, 2022) come the findings set out here.

Holding throughout (format): in vivo, C57BL/6J mice
Series [1] can be described thus: Pharmacokinetics of ketamine and its metabolite hydroxynorketamine in mouse serum, hippocampus and frontal cortex (noncompartmental analysis, LC-MS/MS). To be noted: for AUC0-∞ / Cmax / MRT / t0.5λz / tmax / λz: ketamine 10 mg/kg i.p.
In series [2] the test system is mice subjected to CRS and CRS + ZnD. The experiment in a line: Sucrose preference test (SPT) in mice subjected to CRS or CRS + ZnD. As for the experimental part: (§1) All the compounds/drugs used in the study were obtained commercially, except for hyperforin (sodium salt), which was received as a gift from Dr. Wilmar Schwabe GmbH and Co (Karlsruhe, Germany). […] The control group received only 0.9% NaCl.
(§2) One week after acclimation, the mice were subjected to either a zinc-adequate feed (ZnA, 50 mg/kg) or zinc-deficient/low-Zn feed (ZnD, 3 mg/kg). Beginning from the second week, some ZnD mice were additionally subjected to 3 weeks of CRS. At the beginning of the 5th week, the mice were subjected to their appropriate treatment schedules or behavioral tests (see schemes in the figures).
(§3) CRS was performed in accordance with the procedures of [Ding et al. (2016]) with modifications. Mice from the stress groups were restrained in well-ventilated tubes with caps and holes for breathing (in a separate room from the control groups) for 3 h/day over 3 weeks. After each restraint period, the mice were transferred to housing cages. The control mice were housed at 6 mice per cage in an enriched environment and were handled every third day.
Seven days before the tests, the control and stressed mice were singly housed. The tests were carried out as follows. Two bottles (water and 1% sucrose solution) were placed in each cage 63 h before the test. Twenty-four hours later, the bottles were switched from right to left. Fifteen hours before the tests, the animals were deprived of food, water, and sucrose. The tests lasted 2 h, and sucrose preference was calculated as a percentage of the volume of sucrose intake over the total volume of fluid intake (water and sucrose solution). The SPT was performed during the light phase.

The subject of series [3] is Zn levels in the Hp and FC. The experiment in a line: Analysis of zinc (F-AAS) in the Hp and FC. The conditions noted are these: CRS + ZnD mice; three doses. As for the experimental part: as §1
The samples were mineralized before the experiments. Briefly, three independent test portions of 0.5 g each were weighed from each sample and transferred to Teflon vessels. Then, 2 mL of 30% H2O2 and 6 mL of 65% HNO3 (V) were added, and the mixture was subjected to wet mineralization in a closed system in a Magnum II mineralizer (ERTEC). Mineralization was carried out for 75 min with three cycles of magnetron operation, where the first 30 min was at 60% power, next 15 min was at 80% power, and the remaining 30 min was at 100% power. The mineralized solution thus obtained was heated on a hot plate at 120 °C for 60 min to remove the excess reagents. The samples were then quantitatively transferred to 10 mL flasks and used to determine the zinc content via the F–AAS method (adsorption and emission technique). An atomic absorption spectrometer (iCE 3500, Thermo Scientific, UK) was used to measure the Zn content; each sample was analyzed independently thrice, and the obtained results are presented as mean value ± standard error of mean (SEM).

The test system of series [4] is mice subjected to CRS and CRS + ZnD. The experiment in a line: Tail suspension test (TST) in mice subjected to CRS or CRS + ZnD. To be noted: three doses, 72 h after the last treatment. As for the experimental part: as §1, §2, §3
The TST was performed as described in a previous work ([Pochwat et al., 2018]). Briefly, each mouse was suspended individually by the tail using adhesive tape (2 cm from the tail tip) affixed to a solid flat surface, and immobility times were measured for 6 min. […]

What is called Cmax is the maximum level reached in the sampled fluid or tissue. For orientation: MRT means a mean duration of stay, worked out from the concentration-time curve.

`N[C@@]1(c2ccccc2Cl)CCC[C@@H](O)C1=O` [Hydroxynorketamine, (2R,6R;2S,6S)-hydroxynorketamine]: the “AUC0-∞” value is 148.57 µg·min/g in series [1] (frontal cortex, CRS + ZnD mice); 154.18 µg·min/g in series [1] (frontal cortex, CRS mice); 171.66 µg·min/g in series [1] (frontal cortex, Control mice); 114.29 µg·min/g in series [1] (hippocampus, CRS + ZnD mice); 121.64 µg·min/g in series [1] (hippocampus, CRS mice); 137.36 µg·min/g in series [1] (hippocampus, Control mice). Besides, the Cmax was 1838.33 ng/g in series [1] (frontal cortex, CRS + ZnD mice); 2020.00 ng/g in series [1] (frontal cortex, CRS mice); 1920.83 ng/g in series [1] (frontal cortex, Control mice); 1540.00 ng/g in series [1] (hippocampus, CRS + ZnD mice); 1536.83 ng/g in series [1] (hippocampus, CRS mice); 1591.33 ng/g in series [1] (hippocampus, Control mice). The Cmax was found to be 1.726 µg/mL in series [1] (serum, CRS + ZnD mice); 1.269 µg/mL in series [1] (serum, CRS mice); 1.15271 µg/mL in series [1] (serum, Control mice). Also, the MRT in series [1] (frontal cortex, CRS + ZnD mice) came out at 1.137 h; in series [1] (frontal cortex, CRS mice), 1.212 h; in series [1] (frontal cortex, Control mice), 1.245 h; in series [1] (hippocampus, CRS + ZnD mice), 1.172 h; in series [1] (hippocampus, CRS mice), 1.213 h; in series [1] (hippocampus, Control mice) it was 1.349 h. Moreover, the mean residence time (MRT) stood at 1.22 h in series [1] (serum, CRS + ZnD mice); 1.351 h in series [1] (serum, CRS mice); 1.462 h in series [1] (serum, Control mice). Moreover, the t0.5λz was determined as 52.49 min in series [1] (frontal cortex, CRS + ZnD mice); 59.38 min in series [1] (frontal cortex, CRS mice); 50.01 min in series [1] (frontal cortex, Control mice); 54.06 min in series [1] (hippocampus, CRS + ZnD mice); 54.52 min in series [1] (hippocampus, CRS mice); 58.88 min in series [1] (hippocampus, Control mice). Also, the t0.5λz in series [1] (serum, CRS + ZnD mice) is recorded as 56.28 min; in series [1] (serum, CRS mice), 59.11 min; in series [1] (serum, Control mice), 62.33 min. Moreover, the tmax in series [1] (frontal cortex, CRS + ZnD mice) is 0.167 h; in series [1] (frontal cortex, CRS mice), 0.167 h; in series [1] (frontal cortex, Control mice), 0.167 h; in series [1] (hippocampus, CRS + ZnD mice) it was 0.167 h; in series [1] (hippocampus, CRS mice) it was 0.167 h; in series [1] (hippocampus, Control mice), 0.167 h. Besides, the tmax in series [1] (serum, CRS + ZnD mice) was 0.167 h; in series [1] (serum, CRS mice) it was 0.167 h; in series [1] (serum, Control mice), 1 h. For the same compound, the λz in series [1] (frontal cortex, CRS + ZnD mice) is 0.013 min⁻¹; in series [1] (frontal cortex, CRS mice) it was 0.012 min⁻¹; in series [1] (frontal cortex, Control mice) it was 0.014 min⁻¹; in series [1] (hippocampus, CRS + ZnD mice), 0.013 min⁻¹; in series [1] (hippocampus, CRS mice) it was 0.013 min⁻¹; in series [1] (hippocampus, Control mice), 0.012 min⁻¹. For the same compound, the λz in series [1] (serum, CRS + ZnD mice) was 0.013 min⁻¹; in series [1] (serum, CRS mice), 0.012 min⁻¹; in series [1] (serum, Control mice) it was 0.011 min⁻¹. Moreover, the “tissue-to-serum ratios for the metabolite as share of the values observed for the parent compound” value in series [1] (in the FC) is given as “about 80%”; in series [1] (in the serum and Hp), “about 40%”. Moreover, the “metabolite-to-parent Cmax ratio” value in series [1] (serum, control and study groups) is on record as approximately 1.

For the compound `CN(C)CCCN1c2ccccc2CCc2ccccc21` [IMI, imipramine], the “sucrose preference in the SPT” value in series [2] (CRS + ZnD mice, 10 mg/kg chronically (14 days), SPT 24 h after the last treatment) is reported as “the same was not observed”; in series [2] (CRS mice, 10 mg/kg chronically (14 days), SPT 24 h after the last treatment) it was “restored sucrose preference”.

Regarding `C[C@@H](CN1CCC(Cc2ccccc2)CC1)[C@@H](O)c1ccc(O)cc1` [Ro, Ro 25–6981], the “Zn levels in the Hp and FC” value in series [3] is recorded as “reduced the Zn levels”. Further, the “sucrose preference in the SPT” value is reported as “failed to restore sucrose preference” in series [2] (CRS + ZnD mice, three doses (ketamine 10 mg/kg, Ro 10 mg/kg, Hyp 2.5 mg/kg + Lan 10 mg/kg), 24 h after the last treatment) and “did not show any statistically significant antidepressant-like activities” in series [2] (CRS mice, three doses (ketamine 10 mg/kg, Ro 10 mg/kg, Hyp 2.5 mg/kg + Lan 10 mg/kg), 24 h after the last treatment). Moreover, the “immobility time in the TST” value in series [4] is “ineffective”.
